Three compounds from patent US20130337461A1, “METHOD FOR DIAGNOSIS, MONITORING THE EFFICACY OF A THERAPY AND FOR DEVELOPMENT OF TREATMENT FOR MULTIPLE SCLEROSIS” (priority 2010, published 2013) can be followed below.

For experiment [1], the system named is M03-13 cells. In words: Differentiation of M03-13 cells with low doses of hydrogen peroxide: differentiation markers. The class given is cell-based, human.
Experiment [2] deals with M03-13 cells. Nature of the experiment: Differentiation of M03-13 cells with PMA: expression or localization of differentiation markers.
Where [3] appears, read: 100 nM PMA 30 min, cells pre-incubated 16 h in 0.2% FBS, Western blotting, vs not differentiated.
Where [4] appears, read: 100 nM PMA 24 h, absence of serum, Western blotting.
The mark [5] stands for this setting: 200 μM H2O2 for 4 days in complete medium, Western blotting.

Turning to `CC(=O)N[C@@H](CS)C(=O)O` [NAC, N-Acetyl-Cysteine], in experiment [1] (200 μM H2O2 in presence of NAC 10 mM or AEBSF 40 μM, Western blotting), the “reversal of hydrogen peroxide effects on α-SMA, P-CREB levels” value is “reverted hydrogen peroxide effects”.
For `CCCCCCCCCCCCCC(=O)O[C@@H]1[C@@H](C)[C@@]2(O)[C@@H](C=C(CO)C[C@]3(O)C(=O)C(C)=C[C@@H]23)[C@@H]2C(C)(C)[C@]12OC(C)=O` [PMA, 12-O-Tetradecanoylphorbol-13-acetate], in experiment [2] (setting [3]), the P-CREB levels entry is on record as “significantly increases” and the P-ERK1/2 levels entry was “significantly increases”. Further, in experiment [2] (setting [4]), the Olig-2 levels result is recorded as “increased”, the P-CREB levels result is given as “increased”, the P-ERK1/2 levels result is reported as “increased” and the α-SMA levels result is listed as “decrease”. In addition, the “translocation of olig-2 from nucleus to cytosol” value in experiment [2] (100 nM PMA 24 h, medium without serum, confocal microscopy) is on record as “a cytoplasmic staining of the cells became evident”. In experiment [2] (100 nM PMA serum-free medium, 1 and 4 days, confocal microscopy, vs not differentiated cells), the α-SMA signal result was “decreased”. Moreover, the Olig-2 fluorescent signal entry in experiment [2] (100 nM PMA serum-free medium, 1 day and 4 days, confocal microscopy, vs not differentiated cells) is listed as “progressively increased”. The MBP signal result in experiment [2] (100 nM PMA serum-free medium, 1 day or 4 days, confocal microscopy, vs not differentiated cells) is “increased”. In addition, the “mAchR M1 level” value in experiment [2] (100 nM PMA, absence of serum, 4 days, Western blotting) is reported as “increased”. Also, in experiment [2] (100 nM PMA, absence of serum, 4 days, cell fractionation and Western blotting), the “cytosolic MBP levels” value is recorded as “decreases”. Also, the MBP protein levels entry in experiment [2] (100 nM PMA, medium without serum, 24 h and 4 days, flow cytometric analysis) is “time-dependent increase”.
With hydrogen peroxide [H2O2], the “total MBP protein levels” value in experiment [1] (200 μM H2O2 4d, flow cytometric analysis) is “increases”. In experiment [1] (200 μM H2O2, 30 min and 24 h, confocal microscopy), the “translocation of olig-2 from nucleus to cytosol” value is “a cytoplasmic staining of the cells became evident already after 30 min”. Besides, the α-SMA signal entry in experiment [1] (200 μM H2O2 complete medium, 1 and 4 days, confocal microscopy, vs not differentiated cells) is “decreased”. Also, the Olig-2 fluorescent signal entry in experiment [1] (200 μM H2O2 complete medium, 1 day and 4 days, confocal microscopy, vs not differentiated cells) is reported as “progressively increased”. In addition, in experiment [1] (setting [5]), the P-CREB levels entry is “induces”, the P-ERK1/2 levels result was “not affected” and the α-SMA levels entry is reported as “decreases”. For the same compound, the “cytosolic MBP levels” value in experiment [1] (200 μM hydrogen peroxide 4 days, complete medium, cell fractionation and Western blotting) is listed as “decreases”. Also, the “differentiation of oligodendrocyte precursors to differentiated cells” value in experiment [1] (low doses of hydrogen peroxide, overall conclusion) is recorded as “induces the differentiation”.
